Measured values: ChEMBL document CHEMBL3286324, “Serendipitous oxidation product of BIBN4096BS: a potent CGRP receptor antagonist” (Bioorg Med Chem Lett, 2014)
pEC50, pIC50: −log10 of the molar value.

Assays:
[1] = biological target: T1, Calcitonin gene-related peptide type 1 receptor (Homo sapiens, UniProt O60894+Q16602); experiment: Displacement of [125I]-hCGRP from CGRP receptor in human SK-N-MC cell membranes after 2 hrs by scintillation counting analysis
[2] = biological target: T1, Calcitonin gene-related peptide type 1 receptor; experiment: Antagonist activity at CGRP receptor in human SK-N-MC cells assessed as inhibition of alpha-CGRP-induced c-AMP formation after 15 mins by radioimmunoassay; type: cell-based

T1 sequence (Q16602 whole entry, one chain of several): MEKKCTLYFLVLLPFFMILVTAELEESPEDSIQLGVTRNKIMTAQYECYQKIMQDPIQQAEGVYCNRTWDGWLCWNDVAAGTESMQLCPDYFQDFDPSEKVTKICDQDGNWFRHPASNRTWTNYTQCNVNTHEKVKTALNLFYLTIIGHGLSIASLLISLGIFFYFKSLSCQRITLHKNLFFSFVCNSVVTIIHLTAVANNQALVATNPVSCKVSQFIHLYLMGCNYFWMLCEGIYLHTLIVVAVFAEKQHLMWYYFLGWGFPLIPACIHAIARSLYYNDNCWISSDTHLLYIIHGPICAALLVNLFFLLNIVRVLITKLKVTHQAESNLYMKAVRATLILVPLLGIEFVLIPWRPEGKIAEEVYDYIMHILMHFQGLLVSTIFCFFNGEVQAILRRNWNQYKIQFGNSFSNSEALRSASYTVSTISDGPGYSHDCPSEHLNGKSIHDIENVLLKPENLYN

pIC50 [1] | pEC50 [2] | SMILES
8.57 | 7.00 | NCCCC[C@H](NC(=O)[C@@H](Cc1cc2ccccc2s1)NC(=O)N1CCC(n2c(=O)[nH]c3ccccc3c2=O)CC1)C(=O)N1CCN(c2ccncc2)CC1
7.60 | 7.02 | NCCCC[C@H](NC(=O)[C@@H](Cc1cc2ccccc2s1)NC(=O)N1CCC(N2Cc3ccccc3NC2=O)CC1)C(=O)N1CCN(c2ccncc2)CC1
– | 9.82 | NCCCC[C@H](NC(=O)[C@@H](Cc1cc(Br)c(O)c(Br)c1)NC(=O)N1CCC(n2c(=O)[nH]c3ccccc3c2=O)CC1)C(=O)N1CCN(c2ccncc2)CC1
